These are literature values, as cited in patent publication EP4233849A1, “PHARMACEUTICAL COMPOSITION COMPRISING POMALIDOMIDE” (KRKA, d.d., Novo mesto, priority 2022, dated 2023).

For data set [1] the following is noted: accelerated and room temperature conditions; anhydrous lactose, microcrystalline cellulose, anhydrous dibasic calcium phosphate, croscarmellose sodium, magnesium stearate.
For data set [2] the following is noted: according to BCS classification.

Like-named read-outs stand apart in the source and are kept apart here.

On to `Nc1cccc2c1C(=O)N(C1CCC(=O)NC1=O)C2=O` (racemic) [Pomalidomide, (RS) 4-Amino-2-(2,6-dioxopiperidin-3-yl)isoindole-1,3-dione], for which the “stability in the presence of particular excipients” value in data set [1] was “instability problems”. For the same molecule, the solubility result in data set [2] is on record as “low solubility”; the solubility result (in absolute ethanol, ethyl acetate, heptane, methanol, 2-propanol and toluene) is “very slightly soluble”; the solubility result (in acetone, acetonitrile, methylene chloride, methyl ethyl ketone and tetrahydrofuran) is recorded as “slightly soluble”; the solubility result (in water) is given as “practically insoluble”.
